Experimental data: patent publication US4073900A, “11β-FLUOROPREGNENES” (Schering Aktiengesellschaft, priority 1975, dated 1978)

Experiments:
infantile female rabbits = test: Clauberg test, progestational activity (McPhail values) after oral administration to infantile female rabbits; type: in vivo
Experimental: For the progestational effect, the McPhail values were determined in the usual Clauberg test after oral administration to infantile female rabbits. The minimum amount required to achieve a positive effect is expressed by the McPhail value of 1.5.

seminal vesicles = test: antiandrogen test, seminal vesicle weight in testosterone propionate-treated male castrated rats; type: in vivo; settings: daily dosage s.c. over 7 days, 0.1 mg testosterone propionate daily s.c., halves organ weight caused by testosterone propionate
Experimental: The antiandrogenic activity was tested on male castrated rats weighing about 100 g. Starting with 1 week after castration, the test compound was administered in staggered doses subcutaneously over a period of 7 days. Over the same time period, the animals received daily 0.1 mg. of testosterone propionate subcutaneously. On the eighth day, the animals were sacrificed, and the weights of the seminal vesicles were determined. As the ED50, the daily dosage was determined which reduced the organ weight caused solely by testosterone propionate to one-half.

[1] = oral, dose 0.001 mg, infantile female rabbits
[2] = oral, dose 0.003 mg, infantile female rabbits
[3] = oral, dose 0.01 mg, infantile female rabbits

Structure (SMILES): CC(=O)O[C@]1(C(C)=O)CC[C@H]2[C@@H]3C=C(Cl)C4=CC(=O)[C@@H]5C[C@@H]5[C@]4(C)[C@H]3CC[C@@]21C [B, 17-acetoxy-6-chloro-1α,2α -methylene-4,6-pregnadiene-3,20-dione, reference compound]
- Progestational Activity, McPhail (infantile female rabbits; [1]): 1.0
- Progestational Activity, McPhail (infantile female rabbits; [2]): 1.5
- Progestational Activity, McPhail (infantile female rabbits; [3]): 2.9
- threshold dose (McPhail 1.5) for the progestational activity (infantile female rabbits; oral, infantile female rabbits, minimum amount for positive effect): 0.003 mg
- Antiandrogenic Activity ED50 Seminal Vesicle (seminal vesicles): 0.1 to 0.3 mg

Structure (SMILES): CC(=O)O[C@]1(C(C)=O)CC[C@H]2[C@@H]3C=C(Cl)C4=CC(=O)[C@@H]5C[C@@H]5[C@]4(C)[C@H]3[C@@H](F)C[C@@]21C [A, 17-acetoxy-6-chloro-11β-fluoro-1α,2α -methylene-4,6-pregnadiene-3,20-dione]
- Clauberg test, comparison with compound B (infantile female rabbits; compared with the conventional compound B): superior
- Progestational Activity, McPhail (infantile female rabbits; [1]): 1.1
- Progestational Activity, McPhail (infantile female rabbits; [2]): 2.0
- Progestational Activity, McPhail (infantile female rabbits; [3]): 3.4
- Antiandrogenic Activity ED50 Seminal Vesicle (seminal vesicles): 0.3 to 1.0 mg
